From patent US12037361B2, “Methods for treating multidrug resistant breast cancer” (THE HONG KONG POLYTECHNIC UNIVERSITY, priority 2021, dated 2024)
Residues, ends and D or L forms follow the SMILES beside them.

Tests used:
MCF-7 CSC = assay: Reversal of chemoresistance in MCF-7 CSC (MTS cell viability assay); assay type: cell-based, human
Experimental: (L) Determination of 50% Inhibitory Concentration (IC50) by MTS Assay:
MCF-7 AC and derived cells were seeded onto 96-well plates at a density of 1×10^4 cells per well and treatments of anticancer drugs or peptides were administered accordingly. Following 72-hour incubation at 37° C. with 5% CO2, cell viability was assessed using CellTiter 96 AQueous Non-Radioactive Cell Proliferation Assay (Promega). The IC50 value was estimated from the optical density at 492 nm using GraphPad.

in vivo = assay: in vivo; set-up: species or system Balb/c mice; details: mouse, iv, 25 mg/kg
Experimental: (M) Pharmacokinetic Study of SHARPIN-Derived Peptides:
SHARPIN-derived peptides powder was dissolved in 1×PBS and administered intravenously at 25 mg/kg to overnight-starved Balb/c mice (n=3). At different time points (5, 15, 30, 60, 120, 240, 420 min), blood was collected via cardiac puncture and placed in a heparinized Eppendorf tube followed by centrifuged at 14,000 rpm for 5 min to obtain blood plasma. Plasma was stored at −80° C. until analysis. Plasma concentration data were analyzed by non-compartmental model. Area under plasma concentration-time curve (AUC), distribution half-life (t1/2α) and elimination half-life (t1/2β) were calculated by PK solution2.0 (Summit Research Service, Ashland, USA).
(O) UPLC/QQQ-MS Analysis Protocol:
Agilent 6460 Ultra Performance Liquid Chromatography-Electrospray Ionization Triple Quadrupole mass spectrometer (UPLC-QQQ-MS) was used in sample separation, peptide detection and quantification. Waters Acquity UPLC BEH Protein C4 column (1.7 μm, 2.1×100 mm) was used for separation. SHARPIN-derived peptides were separated and eluted by a gradient of water (0.1% FA, v/v) and acetonitrile (ACN) (0.1% FA, v/v) at a constant flow rate of 0.3 mL/min. During separation, an elution protocol was used as follows. Equilibration: 0 to 1 min, 5% ACN. Elution gradient: 1 to 10 min, ACN from 5 to 99%. Regeneration: 10 to 11 min, 99% ACN, then 11 to 11.5 min, ACN from 99% to 5%. Re-equilibration: 11.5 to 13 min: 5% acetonitrile. A hundred microlitres of plasma/tumor samples were added with 300 μL acetonitrile (1% formic acid (FA)) for protein and peptide precipitation. […] after centrifugation at 14,000 rpm for 10 minutes. Then the samples were reconstituted in 50% methanol (0.1% FA, v/v), filtered through a 0.22 μm nylon filter, and kept in the autosampler at 4° C. for analysis. Twenty microliters were injected into the MS. The MS was operated in positive electrospray ionization (ESI+) mode with supply of 300° C. gas temperature and sheath gas temperature, 8 L/min drying gas, and 11 L/min sheath gas flow and 3.5 kV capillary voltage. The signals of TAT-SP and DRI-TAT-SP were recorded at m/z 563 to 661 at collision energy (CE) of 15 eV and m/z 569 to 637 at CE of 20 eV, respectively. TAT-SP and DRI-TAT-SP were eluted at 4.05 and 3.86 minutes, respectively.

[1] = test system: MCF7 human breast cancer xenograft; assay: In vivo efficacy study in MCF7 breast cancer xenograft model; details: for No. of toxicity death: MCF7 xenograft nude mice, deaths/animals; for tumor volume at end of study: 20 days; for Tumor inhibition (%): 10 injections in 20 days
Experimental: Data obtained are analyzed to evaluate treatment outcomes. Tumor doubling time is calculated using tumor volumes obtained from the end of experiment versus the tumor volumes on the first day of treatment. Tumor inhibition (%) is calculated using the tumor volumes obtained from the end of experiment. Corresponding equations of determining tumor inhibition (T/C) and tumor doubling time (Td) are provided as follows:
(Q) In Vivo Efficacy Study of DRI-TAT-SP Combined with DOX in Treating MCF7 Breast Cancer Xenograft Model:
Six- to eight-week-old female Balb/c nude mice were maintained under specific pathogen-free conditions prior to in vivo efficacy study. Each animal was implanted with a piece of […] pellet 0.72 mg, 60-day release. (Cat No. SE-121, Innovative Research of America, Sarasota, FL). Four days later, the nude mice were inserted at the both flanks with a sesame sized (around 10 mm^3) MCF-7 tumor piece originated from a tumor bulk. When the tumor reached approximately 100 mm^3 (21-28 days), the mice were randomized and administered intravenously with (1) 1×PBS, (2) DOX 1.2 mg/kg, (3) DRI-TAT-SP 25 mg/kg or (4) DOX 1.2 mg/kg+DRI-TAT-SP 25 mg/kg once every 2 days for a total of 10 injections. Tumor volume was measured using digital caliper once every 4 days. Estimated tumor volume (mm^3) was calculated as ½×length (mm)×width (mm)^2. The mouse body weights were recorded once every two days. The tumor doubling time (Td) was calculated as t×log 2/log(Vf/V0), where t, Vf and V0 stand for interval time, percentage change of tumor volume on final day and percentage change of tumor volume on initial day.

FIG. 7B = assay: FIG. 7B
Text: Table printed on a drawing sheet, FIG. 7B
First reader's note: The table is printed as an inset in the plasma level versus time plot of DRI-TAT-SP, and the substance name is taken from the plot axis.

[2] = In vivo toxicity test in Balb/c mice; details: healthy Balb/c mice, DOX 1.2 mg/kg i.v. once every two days, 10 injections
Experimental: (P) In Vivo Toxicity Test in Balb/c Mice:
Healthy female Balb/c mice (6-8 weeks old) were randomized into 3 groups and were administered with (1) DOX 1.2 mg/kg i.v., (2) DRI-TAT-SP 25 mg/kg i.v, and (3) DOX 1.2 mg/kg+DRI-TAT-SP 25 mg/kg i.v. once every two days (q2d) for 10 injections via tail vein injection. The body weight of the mice was measured once every 2 days. Any toxicity symptoms including body weight change and behavioral changes will be monitored.

ITGA2/CRT interaction = target: T1, ITGA2/CRT interaction (Homo sapiens, UniProt P17301); assay: Co-immunoprecipitation with anti-CRT antibody: competition with CRT for KXGFFKR motif of ITGA2; assay type: binding; details: CSC lysate immunoprecipitated with anti-CRT antibody; TAT peptides at 1 μM for 24 hours
T1 construct: endogenous in cells; host or cells: MCF-7-derived cells (lysate)
Experimental: Calreticulin (CRT) from MCF-7-derived cells was immunoprecipitated by anti-CRT (CST) antibody. In brief, MCF-7-derived cells, with or without 24-hour incubation of 1 μM TAT-SP or TAT-SPScr, were collected and subsequently lysed with RIPA buffer on ice for 30 minutes. The lysate was diluted 5-fold with PBS and incubated with anti-CRT antibody overnight at 4° C. with simultaneous mixing on a rotating platform, followed by further incubation of Protein-G PLUS agarose (Santa Cruz Biotechnology) at 4° C. for at least 2 hours.
After incubation, agarose beads were centrifuged and washed by PBS. Immunoprecipitated proteins were collected by treating the beads with 0.2 M glycine and subjected to Western Blotting (WB) analysis.

Akt pathway = assay: Western blotting of p-Akt (T308) in CSCs; assay type: cell-based, human; details: 1 μM peptide for 24 hours
Experimental: (K) Protein Preparation and Western Blotting:
Total protein was extracted with RIPA buffer supplied with protease inhibitor (Roche), resolved in 10% SDS-PAGE and transferred onto Immobilon-P PVDF membrane (Millipore). Membranes were blocked with 5% non-fat dry milk in Tris-buffered saline with 0.1% Tween (TBST) for 2 hours, then were incubated overnight with corresponding antibodies at 4° C., followed by incubation with horseradish peroxidase-conjugated goat anti-mouse IgG (Santa Cruz Biotechnology) or goat anti-rabbit IgG (Santa Cruz Biotechnology) as appropriate, for 2 hours at room temperature in TBST. Antibody binding was detected with Pierce ECL Western Blotting Substrate (Thermo Scientific) and images were visualized with Azure C600 imaging system (Azure Biosystems). The antibodies used were anti-ITGA2 (Abcam), anti-CRT (CST), anti-ILR2 (CST), anti-MRP1/ABCC1 (CST), anti-Mdr-1 (Santa Cruz Biotechnology), anti-Akt (pan) (CST), anti-pAkt (S473) (CST), anti-pAkt (T308) (CST), p53 (Santa Cruz Biotechnology) and anti-β-actin (Santa Cruz Biotechnology).

MRP1 = assay: DOX accumulation assay in CSCs; assay type: cell-based, human; details: 5 μM DOX, 1 μM peptide for 24 hours
Experimental: (I) DOX Accumulation Assay:
To assess MRP1 activity, 2×10^5 MCF-7 AC and derived cells, with or without 24-hour incubation of 1 μM TAT-SP or TAT-SPScr, were treated with 5 μM DOX at 37° C. for 2 hours. After removal of extracellular drugs, cells were divided into two equal halves. One half was lysed with lysis buffer (isopropanol with 0.75 M HCl and 0.2% Triton X-100) at room temperature for 30 minutes; the other half was incubated with 5 μM CMFDA (Invitrogen) in darkness at room temperature for 30 minutes. The fluorescent intensities of drugs and dyes were detected with CLARIOstar (BMG LABTECH) and relative drug concentrations were normalized to CMFDA level.

CSCs = assay: Annexin V apoptosis assay by flow cytometry in CSCs; assay type: cell-based, human; details: 1 μM DOX for 24 hours, 1 μM peptide
Experimental: (F) Flow Cytometry Analysis:
Cells were detached by Phosphate buffered saline (PBS) with 2.5 mM EDTA and washed with PBS. For determining CSC population, a total of 1×10^6 cells were incubated with APC-CD44 (BD Biosciences) and PE-CD24 (BD Biosciences) in FACS solution (PBS with 1% BSA and 1 mM EDTA) for 30 minutes on ice. APC-IgG2 (BD Biosciences) and PE-IgG2 (BD Biosciences) were used as isotype controls. For determining apoptotic population, a total of 1×10^6 cells were first treated with or without 1 μM DOX for 24 hours, in the absence or presence of 1 μM TAT-SP or TAT-SPScr, followed by incubation with FITC-Annexin V (BD Biosciences) and propidium iodide (PI) in binding buffer (10 mM Hepes, pH 7.4, 140 mM NaCl and 2.5 mM CaCl2) for 30 minutes on ice as per the manufacturer's instructions. For determining CRT surface localization, a total of 1×10^6 cells, treated with or without 1 μM DOX for 24 hours, were incubated with anti-CRT antibody (1:800, CST) in PBS with 3% BSA for 1 hour on ice. After washing with PBS, cells were further incubated with 2 μg/mL goat anti-rabbit Alexa Fluor 488 (Invitrogen) for 45 minutes on ice. Fluorescence signals were analyzed by BD Accuri C6 flow cytometer (BD Biosciences).

[3] = MCF7 xenograft, DOX 1.2 mg/kg, DRI-TAT-SP 25 mg/kg
[4] = MCF7 xenograft, i.v. once every 2 days, DOX 1.2 mg/kg, DRI-TAT-SP 25 mg/kg

T1 sequence (P17301 30-1181): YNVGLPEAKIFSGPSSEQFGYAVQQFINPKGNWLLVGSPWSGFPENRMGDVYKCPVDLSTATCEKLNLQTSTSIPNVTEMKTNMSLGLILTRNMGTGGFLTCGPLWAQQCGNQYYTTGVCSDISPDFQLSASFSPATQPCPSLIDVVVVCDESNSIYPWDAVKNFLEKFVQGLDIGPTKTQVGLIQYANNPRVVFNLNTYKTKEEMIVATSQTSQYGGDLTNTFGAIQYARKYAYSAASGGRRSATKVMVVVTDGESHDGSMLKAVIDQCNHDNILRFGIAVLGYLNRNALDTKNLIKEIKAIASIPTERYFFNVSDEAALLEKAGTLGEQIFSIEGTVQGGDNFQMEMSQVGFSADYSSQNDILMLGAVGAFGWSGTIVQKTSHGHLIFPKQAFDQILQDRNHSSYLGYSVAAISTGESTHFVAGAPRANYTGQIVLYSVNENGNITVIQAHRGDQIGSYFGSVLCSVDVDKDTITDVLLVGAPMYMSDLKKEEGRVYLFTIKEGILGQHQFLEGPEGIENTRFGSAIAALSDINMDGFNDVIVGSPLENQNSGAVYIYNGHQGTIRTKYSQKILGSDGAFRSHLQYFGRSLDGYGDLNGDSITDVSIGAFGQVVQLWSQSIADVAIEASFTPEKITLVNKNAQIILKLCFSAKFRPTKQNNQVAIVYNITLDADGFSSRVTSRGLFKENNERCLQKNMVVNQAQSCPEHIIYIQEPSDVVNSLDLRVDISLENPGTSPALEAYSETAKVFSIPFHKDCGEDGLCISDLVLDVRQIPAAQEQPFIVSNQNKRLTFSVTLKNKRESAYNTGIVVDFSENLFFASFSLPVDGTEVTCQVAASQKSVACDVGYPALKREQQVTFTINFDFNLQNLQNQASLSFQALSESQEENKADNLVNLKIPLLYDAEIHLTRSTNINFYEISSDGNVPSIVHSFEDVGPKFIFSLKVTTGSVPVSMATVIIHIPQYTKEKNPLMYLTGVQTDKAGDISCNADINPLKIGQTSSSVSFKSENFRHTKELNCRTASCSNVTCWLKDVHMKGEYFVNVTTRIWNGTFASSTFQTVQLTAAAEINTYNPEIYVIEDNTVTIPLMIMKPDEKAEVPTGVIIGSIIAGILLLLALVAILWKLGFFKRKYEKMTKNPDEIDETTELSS
T1 sequence (P05556 21-798 partner): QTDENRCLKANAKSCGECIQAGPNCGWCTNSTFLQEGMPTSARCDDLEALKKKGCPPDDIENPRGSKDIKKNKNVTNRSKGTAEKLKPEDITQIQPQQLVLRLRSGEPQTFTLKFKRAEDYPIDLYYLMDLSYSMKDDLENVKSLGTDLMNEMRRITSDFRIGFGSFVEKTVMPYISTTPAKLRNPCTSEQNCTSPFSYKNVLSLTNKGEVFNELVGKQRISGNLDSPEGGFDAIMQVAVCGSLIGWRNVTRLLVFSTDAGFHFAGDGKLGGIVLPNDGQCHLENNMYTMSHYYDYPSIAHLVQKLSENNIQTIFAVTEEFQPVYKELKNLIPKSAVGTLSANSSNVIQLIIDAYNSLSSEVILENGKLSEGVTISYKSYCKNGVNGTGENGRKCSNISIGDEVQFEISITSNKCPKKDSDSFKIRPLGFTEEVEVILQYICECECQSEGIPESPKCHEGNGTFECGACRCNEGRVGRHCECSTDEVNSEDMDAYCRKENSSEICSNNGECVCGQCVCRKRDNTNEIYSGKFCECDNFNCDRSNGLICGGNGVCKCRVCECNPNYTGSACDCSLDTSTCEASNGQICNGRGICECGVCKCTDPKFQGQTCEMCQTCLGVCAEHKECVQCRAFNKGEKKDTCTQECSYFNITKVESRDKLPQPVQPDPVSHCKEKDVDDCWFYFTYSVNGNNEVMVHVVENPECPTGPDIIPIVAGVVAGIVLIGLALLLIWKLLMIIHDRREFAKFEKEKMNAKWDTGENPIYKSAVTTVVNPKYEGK

CC[C@@H](C)[C@@H](NC(=O)CNC(=O)[C@@H](CCCNC(=N)N)NC(=O)[C@@H](CS)NC(=O)[C@@H](CC(C)C)NC(=O)[C@@H](CS)NC(=O)[C@H](NC(=O)[C@H]1CCCN1C(=O)[C@@H](CCC(=O)O)NC(=O)[C@@H](CCCNC(=N)N)NC(C)=O)C(C)C)C(=O)N[C@@H](C(=O)N[C@H](Cc1c[nH]c2ccccc12)C(=O)N[C@H](CCCNC(=N)N)C(=O)N[C@H](CCC(N)=O)C(=O)N[C@@H](C(=O)N[C@H](C)C(=O)N1CCC[C@@H]1C(=O)N1CCC[C@@H]1C(=O)N[C@H](Cc1ccccc1)C(=O)NCC(=O)N[C@H](CC(C)C)C(=O)N[C@H](CCC(=O)O)C(=O)N[C@H](CO)C(=O)N[C@H](CCCNC(=N)N)C(=O)N[C@H](CCCNC(=N)N)C(=O)N[C@H](CCCNC(=N)N)C(=O)N[C@H](CCC(N)=O)C(=O)N[C@H](CCCNC(=N)N)C(=O)N[C@H](CCCNC(=N)N)C(=O)N[C@H](CCCCN)C(=O)N[C@H](CCCCN)C(=O)N[C@H](CCCNC(=N)N)C(N)=O)C(C)C)C(C)C [DRI-TAT-SP, Ac-repvclcrgivwrqvappfglesrrrqrrkkr-NH2] (HELM PEPTIDE1{[ac].[dR].[dE].[dP].[dV].[dC].[dL].[dC].[dR].G.[dI].[dV].[dW].[dR].[dQ].[dV].[dA].[dP].[dP].[dF].G.[dL].[dE].[dS].[dR].[dR].[dR].[dQ].[dR].[dR].[dK].[dK].[dR].[am]}$$$$V2.0)
EC50 (MCF-7 CSC; MCF-7 breast CSCs, in the presence of DOX, 72-hour incubation, read-out: EC50 of reversing chemoresistance in the presence of DOX (DOX-EC50)): 2300 ± 400 nM
Cmax (in vivo; Balb/c): 870 ng/mL
half-life (in vivo; Balb/c, distribution half-life t1/2α): 0.265 h
half-life (in vivo; Balb/c, elimination half-life t1/2β): 7.37 h
time of Cmax post administration (in vivo): 5 min
No. of toxicity death [1]: 0/6
tumor volume at end of study [1, 3]: 325±135 mm^3
Tumor inhibition (%) [1, 4]: 10.1%
Tumor doubling time ([1]; MCF7 xenograft, i.v. once every 2 days, 10 injections, DOX 1.2 mg/kg, DRI-TAT-SP 25 mg/kg): 12.9 days
AUC(0-obs) | ng-min/mL (FIG. 7B): 118,010 ng-min/mL

COc1cccc2c1C(=O)c1c(O)c3c(c(O)c1C2=O)C[C@@](O)(C(=O)CO)C[C@@H]3O[C@H]1C[C@H](N)[C@H](O)[C@H](C)O1 [Doxorubicin, reference compound]
body weight change [2]: +0.6±2.4%
No. of toxicity death [1]: 0/8
tumor volume at end of study [1, 3]: 270±73 mm^3
Tumor inhibition (%) [1, 4]: 21.5%

RKKRRQRRRSELGFPPAVQRWVIGRCLCVPER [TAT-SP]
modulation of CSC chemoresistance with respect to DOX, PTX and VCR (MCF-7 CSC; CSCs, DOX, PTX and VCR IC50 (FIG. 5D)): able to modulate CSC chemoresistance
competition with CRT for the KXGFFKR motif / inhibition of immunoprecipitation of ITGA2 (ITGA2/CRT interaction): compete with CRT
activation of Akt pathway by ITGA2 (p-Akt T308) (Akt pathway): inhibits the activation of Akt pathway
DOX accumulation (MRP1): high level of DOX accumulation
DOX-induced apoptosis (CSCs): leaves CSCs unprotected from DOX-induced apoptosis

SELGFPPAVQRWVIGRCLCVPER [SP, peptide derived from the UBL domain of SHARPIN (residues 259-281)]
competition with CRT for the KXGFFKR motif / inhibition of immunoprecipitation of ITGA2 (ITGA2/CRT interaction): compete with CRT
